Test [1] deals with murine bone marrow-derived macrophages. The test can be described thus: area under cytotoxicity dose-response curve (AUC (% cytotoxicity x dose, relative)); higher = more cytotoxic. The settings on record: duration: 6 days; dose range: 0.13-80 uM, 8 points. In outline: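 Using opaque 384-well plates, primary murine bone marrow-derived macrophages were treated for 6 days at 37 °C in 5% CO2 with an 8-point, 2.5-fold dilution series spanning final concentrations of 80–0.13 μM. After CellTiter-Glo (Promega) luminescence readout of viability, percent cytotoxicity was normalised to vehicle and positive control wells. The reported value is the area under the dose–response curve for cytotoxicity, derived in GraphPad Prism version 10.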

Test [2] deals with Mycobacterium tuberculosis CDC1551 (intracellular, in murine BMDM). The test can be described thus: area under intracellular growth-inhibition dose-response curve (AUC (% inhibition x dose, relative)); higher = more potent. The settings on record: duration: 6 days; dose range: 0.13-80 uM, 8 points. Put shortly:
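Primary murine bone marrow-derived macrophages in 384-well opaque plates were infected 24 h after seeding with luciferase-expressing M. tuberculosis CDC1551 at multiplicity of infection 1 for 1 h. They were then treated with an 8-dose, 2.5-fold series (final 80–0.13 μM) for 6 days. Growth was read by Bright-Glo luciferin assay and normalised to a reference drug control and the lowest-concentration wells. The value is the area under the growth-inhibition dose–response curve, calculated in GraphPad Prism.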

Where only a bound is given, the exact number is not on record here.

In the case of `O=C(/C=C\c1cccs1)N1CCN(Cc2ccc3c(c2)OCO3)CC1`, the “area under cytotoxicity dose-response curve” value in test [1] came out at 135. In test [2], the “area under intracellular growth-inhibition dose-response curve” value was 218.
On the same counts, the results for `CO[C@@H]1[C@@H](OC(N)=O)[C@@H](O)C(Oc2ccc3c(O)c(NC(=O)c4ccc([O-])c(CC=C(C)C)c4)c(=O)oc3c2C)OC1(C)C.[Na+]` (some centres undefined) are 80.2 and 24.9.
On the same counts, the results for `O=C(CCN1C(=O)/C(=C/c2cccs2)SC1=S)Nc1ccc(C(=O)O)c(O)c1` are 68.2 and 189.
In the same order, the values of `NC(=S)N/N=C/c1ccc(OC(=O)c2cccnc2)cc1` are 48 and 262.
With `Cn1ncc2cc(NC(N)=S)ccc21`, the “area under cytotoxicity dose-response curve” value in test [1] is below 0. Also, the “area under intracellular growth-inhibition dose-response curve” value in test [2] was 196.
In the same order, the values of `FC(F)(Cl)c1nnc2ccc(Cl)nn12` are 26.5 and 126.
As to `Cc1cc(NS(=O)(=O)c2ccc(N)cc2)no1`, in test [1], the “area under cytotoxicity dose-response curve” value stood at 28.4. For the same compound, the “area under intracellular growth-inhibition dose-response curve” value in test [2] was 57.8.
`O=C(/C=C/c1cccs1)N1CCCC1`: the “area under cytotoxicity dose-response curve” value in test [1] turned out to be 3.62. Moreover, the “area under intracellular growth-inhibition dose-response curve” value in test [2] was 168.
On the same counts, the results for `c1ccc2c(c1)-c1cccc3cncc-2c13` are 36.8 and 200.
As for `CC(=O)Oc1c(C)cc(Cl)cc1C(=O)Nc1ccc([N+](=O)[O-])cc1Cl`, the “area under cytotoxicity dose-response curve” value in test [1] was determined as 113. In test [2], the “area under intracellular growth-inhibition dose-response curve” value stood at 230.
On the same counts, the results for `c1csc(Cc2nn3c(-c4[nH]nc5c4CCC5)nnc3s2)c1` are 44.4 and 251.
With `COc1ccc(/C=N/NC(N)=S)cc1`, in test [1], the “area under cytotoxicity dose-response curve” value amounted to 4.45. In addition, the “area under intracellular growth-inhibition dose-response curve” value in test [2] turned out to be 258.
On the same counts, the results for `CCC(CO)N1C(C)=CC(=Cc2sc3ccccc3[n+]2Cc2ccccc2)C=C1C.[Br-]` (centres undefined) are 54.8 and 176.
On the same counts, the results for `NC(=O)C[C@H](NC(=O)c1ccc(Cl)cc1)C(=O)OCc1ccccc1` are below 0 and 16.5.
In the same order, the values of `CC(=O)Nc1ccc(Sc2ccc([N+](=O)[O-])o2)cc1` are 21.3 and 108.
`O=C(NC1CCCCC1)c1ccc([N+](=O)[O-])cc1`: the “area under cytotoxicity dose-response curve” value in test [1] worked out at 15.6. The “area under intracellular growth-inhibition dose-response curve” value in test [2] worked out at 218.
On the same counts, the results for `O=C(NCCC1=CCCCC1)c1ccc(F)cc1` are 3.13 and 122.
On the same counts, the results for `COc1ccc(/C=N/NC(=O)c2ccncc2)cc1Cn1nc([N+](=O)[O-])c(Br)c1C` are below 0 and 273.
In the same order, the values of `O=C(N/N=C/c1ccccc1C(=O)O)c1ccncc1` are 37.2 and 266.
Turning to `O=C(COC(=O)Cc1ccc(Cl)cc1)NCc1cccs1`, the “area under cytotoxicity dose-response curve” value in test [1] stood at 18.4. Further, the “area under intracellular growth-inhibition dose-response curve” value in test [2] was found to be 37.1.
In the same order, the values of `C/C(=N\NC(=O)c1ccncc1)c1cccnc1` are 90.7 and 129.
In the same order, the values of `CCCC(=O)N1CCN(c2ccc(NC(=O)c3ccc([N+](=O)[O-])o3)cc2)CC1` are 129 and 107.
On the same counts, the results for `Cc1nnc(NCc2cccc(Cl)c2)c2ccccc12` are 128 and 211.
As for `O=C(OCC(=O)C12CC3CC(CC(C3)C1)C2)c1ccc(CO)cc1`, the “area under cytotoxicity dose-response curve” value in test [1] was below 0. Also, the “area under intracellular growth-inhibition dose-response curve” value in test [2] stood at 124.
`Cc1cccc(Cn2ccc(NC(=O)c3ccc4c(c3)OCO4)n2)c1`: the “area under cytotoxicity dose-response curve” value in test [1] was 85.5. Also, the “area under intracellular growth-inhibition dose-response curve” value in test [2] was 133.
On the same counts, the results for `COc1ccc(NC(=O)CON=CC(=O)Nc2ccc(C)cc2)c(OC)c1` are 7 and 38.9.
On the same counts, the results for `COc1ccc(/C=C/C(=O)c2ccc([N+](=O)[O-])o2)cc1OC` are 118 and 3.95.
In the same order, the values of `Cc1cc(C)c2cc(C(=O)Nc3ccc(C)c(F)c3)[nH]c2c1` are below 0 and 214.
Turning to `N#Cc1ccc(NCC(=O)N2CCN(S(=O)(=O)c3ccccc3)CC2)cc1`, in test [1], the “area under cytotoxicity dose-response curve” value is below 0. Besides, the “area under intracellular growth-inhibition dose-response curve” value in test [2] amounted to 56.7.
On to `CCOc1ccc(/C=N/NC(N)=S)cc1`, for which the “area under cytotoxicity dose-response curve” value in test [1] came out at 28.9. The “area under intracellular growth-inhibition dose-response curve” value in test [2] was found to be 270.
On the same counts, the results for `CCCC(=O)NC(=S)Nc1ccc(NC(=O)c2cccs2)cc1` are 8.63 and 261.
Consider `Cc1ccc(C2=NN(C(=O)CCl)C(c3cccs3)C2)o1` (centres undefined), for which, in test [1], the “area under cytotoxicity dose-response curve” value amounted to 25.9. In addition, the “area under intracellular growth-inhibition dose-response curve” value in test [2] amounted to 105.
On the same counts, the results for `O=C(N/N=C/c1ccc([N+](=O)[O-])o1)c1cc2ccccc2o1` are 43.2 and 106.
As to `O=C(N/N=C/C=C/c1cccc([N+](=O)[O-])c1)c1ccncc1`, the “area under cytotoxicity dose-response curve” value in test [1] turned out to be 17.5. In addition, the “area under intracellular growth-inhibition dose-response curve” value in test [2] was 111.
On the same counts, the results for `COc1ccc(NC(=O)C(C)NC2=NS(=O)(=O)c3ccccc32)cc1S(N)(=O)=O` (centres undefined) are 8.48 and 63.2.
As for `CCCCNC(=S)Nc1ccc2c[nH]nc2c1`, in test [1], the “area under cytotoxicity dose-response curve” value was 37.5. For the same compound, the “area under intracellular growth-inhibition dose-response curve” value in test [2] stood at 190.
On the same counts, the results for `Cc1ccc(C2=NN(C(=O)CCl)C(c3ccco3)C2)o1` (centres undefined) are 73.1 and 88.6.
In the same order, the values of `NC(=S)N/N=C/c1ccc(-c2ccc(SC(F)F)cc2)o1` are 46.9 and 271.
On the same counts, the results for `C/C(Cn1cnc([N+](=O)[O-])n1)=N\NC(=O)c1ccncc1` are 39.4 and 249.
On to `CCCCCCCn1c(=O)c(C(=O)Nc2cnccn2)c(O)c2ccccc21`, for which, in test [1], the “area under cytotoxicity dose-response curve” value turned out to be 7.68. The “area under intracellular growth-inhibition dose-response curve” value in test [2] stood at 66.
In the same order, the values of `Cc1ccccc1CNC(=O)c1ccccc1` are 38.3 and 213.
On to `C/C(=N\Cc1ccc2c(c1)OCO2)C1=C(O)c2ccccc2C1=O`, for which, in test [1], the “area under cytotoxicity dose-response curve” value is below 0. Moreover, the “area under intracellular growth-inhibition dose-response curve” value in test [2] turned out to be 214.

These data come from the supplement of paper PMC11997997.
